Laboratory results taken from the NIST ThermoML archive (doi:10.1016/j.jct.2005.07.009).
Numbers after ± are expanded uncertainties.

Experiments:
[1] = xn = mol fraction of the nth substance listed; conditions: 298.15 K, 101 kPa, Liquid, Vibrating tube method
[2] = excess molar enthalpy (molar enthalpy of mixing); xn = mol fraction of the nth substance listed; conditions: 298.15 K, 101 kPa, Liquid

BrCCBr [1,2-dibromoethane] + CCOC=O
Conditions | excess molar enthalpy [kJ/mol] | mass density [kg/m3]
[1], x2 = 0.062 | – | 2094.82 ± 1.5
[1], x2 = 0.1228 | – | 2022.36 ± 1.6
[1], x2 = 0.1867 | – | 1945.54 ± 1.8
[1], x2 = 0.2494 | – | 1869.83 ± 2
[1], x2 = 0.3088 | – | 1797.46 ± 2.1
[1], x2 = 0.366 | – | 1727.27 ± 2.3
[1], x2 = 0.4251 | – | 1654.13 ± 2.4
[1], x2 = 0.4893 | – | 1574.29 ± 2.5
[1], x2 = 0.5444 | – | 1505.3 ± 2.5
[1], x2 = 0.6044 | – | 1429.44 ± 2.6
[1], x2 = 0.6588 | – | 1360.3 ± 2.6
[1], x2 = 0.7175 | – | 1285.15 ± 2.6
[1], x2 = 0.8304 | – | 1138.86 ± 2.6
[1], x2 = 0.8871 | – | 1064.61 ± 2.5
[1], x2 = 0.9405 | – | 994.23 ± 2.5
[2], x2 = 0.0568 | 0.12 ± 0.0039 | –
[2], x2 = 0.1289 | 0.218 ± 0.0063 | –
[2], x2 = 0.1965 | 0.295 ± 0.0081 | –
[2], x2 = 0.2654 | 0.36 ± 0.0097 | –
[2], x2 = 0.3304 | 0.4 ± 0.011 | –
[2], x2 = 0.3922 | 0.415 ± 0.011 | –
[2], x2 = 0.4464 | 0.413 ± 0.011 | –
[2], x2 = 0.497 | 0.404 ± 0.011 | –
[2], x2 = 0.5357 | 0.393 ± 0.011 | –
[2], x2 = 0.5433 | 0.375 ± 0.01 | –
[2], x2 = 0.5813 | 0.371 ± 0.01 | –
[2], x2 = 0.5831 | 0.342 ± 0.0093 | –
[2], x2 = 0.6341 | 0.342 ± 0.0093 | –
[2], x2 = 0.6895 | 0.302 ± 0.0083 | –
[2], x2 = 0.7525 | 0.249 ± 0.007 | –
[2], x2 = 0.8186 | 0.191 ± 0.0056 | –
[2], x2 = 0.8841 | 0.133 ± 0.0043 | –
[2], x2 = 0.9442 | 0.0671 ± 0.0028 | –

BrCCCBr [1,3-dibromopropane] + CCCC(=O)OCC
Conditions | excess molar enthalpy [kJ/mol] | mass density [kg/m3]
[1], x2 = 0.0436 | – | 1908.9 ± 1.2
[1], x2 = 0.0835 | – | 1854.01 ± 1.3
[1], x2 = 0.1381 | – | 1781.05 ± 1.4
[1], x2 = 0.1859 | – | 1719.07 ± 1.6
[1], x2 = 0.2926 | – | 1586.65 ± 1.8
[1], x2 = 0.4637 | – | 1389.88 ± 2
[1], x2 = 0.5238 | – | 1324.96 ± 2.1
[1], x2 = 0.6494 | – | 1195.57 ± 2.2
[1], x2 = 0.7131 | – | 1133.02 ± 2.3
[1], x2 = 0.7811 | – | 1068.34 ± 2.3
[1], x2 = 0.852 | – | 1003.1 ± 2.3
[1], x2 = 0.9215 | – | 941.15 ± 2.3
[2], x2 = 0.0406 | 0.0221 ± 0.0019 | –
[2], x2 = 0.0875 | 0.0343 ± 0.0021 | –
[2], x2 = 0.142 | 0.0379 ± 0.0021 | –
[2], x2 = 0.1949 | 0.0348 ± 0.0021 | –
[2], x2 = 0.2497 | 0.0241 ± 0.0019 | –
[2], x2 = 0.3027 | 0.0073 ± 0.0017 | –
[2], x2 = 0.3525 | -0.0111 ± 0.0017 | –
[2], x2 = 0.4005 | -0.0306 ± 0.002 | –
[2], x2 = 0.4399 | -0.0456 ± 0.0023 | –
[2], x2 = 0.4453 | -0.0477 ± 0.0023 | –
[2], x2 = 0.4914 | -0.0625 ± 0.0026 | –
[2], x2 = 0.5444 | -0.0715 ± 0.0028 | –
[2], x2 = 0.6028 | -0.0776 ± 0.003 | –
[2], x2 = 0.6668 | -0.0794 ± 0.003 | –
[2], x2 = 0.7369 | -0.0774 ± 0.003 | –
[2], x2 = 0.8067 | -0.0673 ± 0.0028 | –
[2], x2 = 0.8771 | -0.0499 ± 0.0024 | –

BrCCCBr [1,3-dibromopropane] + CCCCC(=O)OCC
Conditions | excess molar enthalpy [kJ/mol] | mass density [kg/m3]
[1], x2 = 0.0408 | – | 1905.88 ± 1.2
[1], x2 = 0.0868 | – | 1836.07 ± 1.4
[1], x2 = 0.1296 | – | 1773.38 ± 1.4
[1], x2 = 0.177 | – | 1707.11 ± 1.6
[1], x2 = 0.273 | – | 1579.99 ± 1.8
[1], x2 = 0.325 | – | 1515.4 ± 1.9
[1], x2 = 0.3803 | – | 1449.57 ± 1.9
[1], x2 = 0.437 | – | 1385.12 ± 2
[1], x2 = 0.5197 | – | 1296 ± 2.1
[1], x2 = 0.6902 | – | 1128.6 ± 2.2
[1], x2 = 0.7601 | – | 1065.64 ± 2.3
[1], x2 = 0.8344 | – | 1001.96 ± 2.3
[1], x2 = 0.9163 | – | 935.2 ± 2.3
[2], x2 = 0.0175 | 0.0142 ± 0.0018 | –
[2], x2 = 0.0382 | 0.0258 ± 0.002 | –
[2], x2 = 0.0611 | 0.0353 ± 0.0021 | –
[2], x2 = 0.0911 | 0.0379 ± 0.0021 | –
[2], x2 = 0.1259 | 0.0386 ± 0.0022 | –
[2], x2 = 0.1645 | 0.0369 ± 0.0021 | –
[2], x2 = 0.205 | 0.0328 ± 0.0021 | –
[2], x2 = 0.247 | 0.0236 ± 0.0019 | –
[2], x2 = 0.2878 | 0.0084 ± 0.0017 | –
[2], x2 = 0.3293 | -0.0101 ± 0.0017 | –
[2], x2 = 0.3706 | -0.0262 ± 0.002 | –
[2], x2 = 0.4062 | -0.0388 ± 0.0022 | –
[2], x2 = 0.4471 | -0.0512 ± 0.0024 | –
[2], x2 = 0.4985 | -0.0643 ± 0.0027 | –
[2], x2 = 0.5544 | -0.0712 ± 0.0028 | –
[2], x2 = 0.6183 | -0.076 ± 0.0029 | –
[2], x2 = 0.6862 | -0.0787 ± 0.003 | –
[2], x2 = 0.7558 | -0.0761 ± 0.0029 | –
[2], x2 = 0.8251 | -0.0654 ± 0.0027 | –
[2], x2 = 0.8833 | -0.0489 ± 0.0024 | –
[2], x2 = 0.946 | -0.0252 ± 0.002 | –
